Numbers after ± are expanded uncertainties.
Details: Liquid, Vibrating wire viscometry

SMILES: F/C=C/C(F)(F)F [trans-1,3,3,3-tetrafluoropropene]
- viscosity (243.16 K, 61 kPa): 0.3906 ± 0.0092 mPa·s
- viscosity (243.16 K, 1000 kPa): 0.395 ± 0.0093 mPa·s
- viscosity (243.16 K, 3000 kPa): 0.4028 ± 0.0095 mPa·s
- viscosity (243.16 K, 5000 kPa): 0.4116 ± 0.0096 mPa·s
- viscosity (243.16 K, 10000 kPa): 0.4321 ± 0.01 mPa·s
- viscosity (243.16 K, 15000 kPa): 0.4532 ± 0.01 mPa·s
- viscosity (243.16 K, 20000 kPa): 0.4742 ± 0.011 mPa·s
- viscosity (243.16 K, 25000 kPa): 0.4951 ± 0.011 mPa·s
- viscosity (243.16 K, 30000 kPa): 0.517 ± 0.012 mPa·s
- viscosity (253.16 K, 97 kPa): 0.3409 ± 0.0083 mPa·s
- viscosity (253.16 K, 1000 kPa): 0.3462 ± 0.0084 mPa·s
- viscosity (253.16 K, 3000 kPa): 0.3538 ± 0.0086 mPa·s
- viscosity (253.16 K, 5000 kPa): 0.3613 ± 0.0087 mPa·s
- viscosity (253.16 K, 10000 kPa): 0.381 ± 0.0091 mPa·s
- viscosity (253.16 K, 15000 kPa): 0.3999 ± 0.0094 mPa·s
- viscosity (253.16 K, 20000 kPa): 0.4192 ± 0.0098 mPa·s
- viscosity (253.16 K, 25000 kPa): 0.4374 ± 0.01 mPa·s
- viscosity (253.16 K, 30000 kPa): 0.4554 ± 0.01 mPa·s
- viscosity (263.16 K, 148 kPa): 0.2942 ± 0.0075 mPa·s
- viscosity (263.16 K, 1000 kPa): 0.3043 ± 0.0077 mPa·s
- viscosity (263.16 K, 3000 kPa): 0.3119 ± 0.0078 mPa·s
- viscosity (263.16 K, 5000 kPa): 0.3189 ± 0.0079 mPa·s
- viscosity (263.16 K, 10000 kPa): 0.3358 ± 0.0082 mPa·s
- viscosity (263.16 K, 15000 kPa): 0.3534 ± 0.0085 mPa·s
- viscosity (263.16 K, 20000 kPa): 0.3707 ± 0.0089 mPa·s
- viscosity (263.16 K, 25000 kPa): 0.3875 ± 0.0092 mPa·s
- viscosity (263.16 K, 30000 kPa): 0.4047 ± 0.0095 mPa·s
- viscosity (273.15 K, 217 kPa): 0.2572 ± 0.0068 mPa·s
- viscosity (273.15 K, 1000 kPa): 0.2626 ± 0.0069 mPa·s
- viscosity (273.15 K, 3000 kPa): 0.2702 ± 0.007 mPa·s
- viscosity (273.15 K, 5000 kPa): 0.2776 ± 0.0072 mPa·s
- viscosity (273.15 K, 10000 kPa): 0.2949 ± 0.0075 mPa·s
- viscosity (273.15 K, 15000 kPa): 0.3127 ± 0.0078 mPa·s
- viscosity (273.15 K, 20000 kPa): 0.3284 ± 0.0081 mPa·s
- viscosity (273.15 K, 25000 kPa): 0.3451 ± 0.0084 mPa·s
- viscosity (273.15 K, 30000 kPa): 0.3616 ± 0.0087 mPa·s
- viscosity (283.14 K, 308 kPa): 0.2271 ± 0.0063 mPa·s
- viscosity (283.14 K, 1000 kPa): 0.2318 ± 0.0064 mPa·s
- viscosity (283.14 K, 3000 kPa): 0.2383 ± 0.0065 mPa·s
- viscosity (283.14 K, 5000 kPa): 0.2442 ± 0.0066 mPa·s
- viscosity (283.14 K, 10000 kPa): 0.2602 ± 0.0069 mPa·s
- viscosity (283.14 K, 15000 kPa): 0.2755 ± 0.0071 mPa·s
- viscosity (283.14 K, 20000 kPa): 0.2908 ± 0.0074 mPa·s
- viscosity (283.14 K, 25000 kPa): 0.3061 ± 0.0077 mPa·s
- viscosity (283.14 K, 30000 kPa): 0.3203 ± 0.0079 mPa·s
- viscosity (293.15 K, 428 kPa): 0.2016 ± 0.0059 mPa·s
- viscosity (293.15 K, 1000 kPa): 0.2035 ± 0.0059 mPa·s
- viscosity (293.15 K, 3000 kPa): 0.2097 ± 0.006 mPa·s
- viscosity (293.15 K, 5000 kPa): 0.216 ± 0.0061 mPa·s
- viscosity (293.15 K, 10000 kPa): 0.2315 ± 0.0064 mPa·s
- viscosity (293.15 K, 15000 kPa): 0.2459 ± 0.0066 mPa·s
- viscosity (293.15 K, 20000 kPa): 0.2606 ± 0.0069 mPa·s
- viscosity (293.15 K, 25000 kPa): 0.2741 ± 0.0071 mPa·s
- viscosity (293.15 K, 30000 kPa): 0.2877 ± 0.0073 mPa·s
- viscosity (303.15 K, 579 kPa): 0.179 ± 0.0055 mPa·s
- viscosity (303.15 K, 1000 kPa): 0.1816 ± 0.0056 mPa·s
- viscosity (303.15 K, 3000 kPa): 0.1875 ± 0.0056 mPa·s
- viscosity (303.15 K, 5000 kPa): 0.1933 ± 0.0057 mPa·s
- viscosity (303.15 K, 10000 kPa): 0.2085 ± 0.006 mPa·s
- viscosity (303.15 K, 15000 kPa): 0.2227 ± 0.0062 mPa·s
- viscosity (303.15 K, 20000 kPa): 0.2364 ± 0.0064 mPa·s
- viscosity (303.15 K, 25000 kPa): 0.2495 ± 0.0067 mPa·s
- viscosity (303.15 K, 30000 kPa): 0.2625 ± 0.0069 mPa·s
- viscosity (313.14 K, 767 kPa): 0.1587 ± 0.0052 mPa·s
- viscosity (313.14 K, 1000 kPa): 0.1601 ± 0.0052 mPa·s
- viscosity (313.14 K, 3000 kPa): 0.1663 ± 0.0053 mPa·s
- viscosity (313.14 K, 5000 kPa): 0.1728 ± 0.0054 mPa·s
- viscosity (313.14 K, 10000 kPa): 0.1873 ± 0.0056 mPa·s
- viscosity (313.14 K, 15000 kPa): 0.2008 ± 0.0059 mPa·s
- viscosity (313.14 K, 20000 kPa): 0.2151 ± 0.0061 mPa·s
- viscosity (313.14 K, 25000 kPa): 0.2283 ± 0.0063 mPa·s
- viscosity (313.14 K, 30000 kPa): 0.2401 ± 0.0065 mPa·s
- viscosity (323.16 K, 998 kPa): 0.1405 ± 0.0049 mPa·s
- viscosity (323.16 K, 3000 kPa): 0.1479 ± 0.005 mPa·s
- viscosity (323.16 K, 5000 kPa): 0.1539 ± 0.0051 mPa·s
- viscosity (323.16 K, 10000 kPa): 0.1687 ± 0.0053 mPa·s
- viscosity (323.16 K, 15000 kPa): 0.183 ± 0.0056 mPa·s
- viscosity (323.16 K, 20000 kPa): 0.1968 ± 0.0058 mPa·s
- viscosity (323.16 K, 25000 kPa): 0.2093 ± 0.006 mPa·s
- viscosity (323.16 K, 30000 kPa): 0.221 ± 0.0062 mPa·s
- viscosity (333.16 K, 1277 kPa): 0.1239 ± 0.0047 mPa·s
- viscosity (333.16 K, 3000 kPa): 0.1305 ± 0.0048 mPa·s
- viscosity (333.16 K, 5000 kPa): 0.1373 ± 0.0049 mPa·s
- viscosity (333.16 K, 10000 kPa): 0.1527 ± 0.0051 mPa·s
- viscosity (333.16 K, 15000 kPa): 0.1671 ± 0.0053 mPa·s
- viscosity (333.16 K, 20000 kPa): 0.1796 ± 0.0055 mPa·s
- viscosity (333.16 K, 25000 kPa): 0.1914 ± 0.0057 mPa·s
- viscosity (333.16 K, 30000 kPa): 0.2033 ± 0.0059 mPa·s
- viscosity (343.16 K, 1611 kPa): 0.1085 ± 0.0045 mPa·s
- viscosity (343.16 K, 3000 kPa): 0.115 ± 0.0046 mPa·s
- viscosity (343.16 K, 5000 kPa): 0.1227 ± 0.0047 mPa·s
- viscosity (343.16 K, 10000 kPa): 0.1383 ± 0.0049 mPa·s
- viscosity (343.16 K, 15000 kPa): 0.1527 ± 0.0051 mPa·s
- viscosity (343.16 K, 20000 kPa): 0.1657 ± 0.0053 mPa·s
- viscosity (343.16 K, 25000 kPa): 0.1773 ± 0.0055 mPa·s
- viscosity (343.16 K, 30000 kPa): 0.1888 ± 0.0057 mPa·s
- viscosity (353.16 K, 2008 kPa): 0.0939 ± 0.0043 mPa·s
- viscosity (353.16 K, 3000 kPa): 0.0993 ± 0.0044 mPa·s
- viscosity (353.16 K, 5000 kPa): 0.1072 ± 0.0045 mPa·s
- viscosity (353.16 K, 10000 kPa): 0.1241 ± 0.0047 mPa·s
- viscosity (353.16 K, 15000 kPa): 0.139 ± 0.0049 mPa·s
- viscosity (353.16 K, 20000 kPa): 0.1516 ± 0.0051 mPa·s
- viscosity (353.16 K, 25000 kPa): 0.1638 ± 0.0053 mPa·s
- viscosity (353.16 K, 30000 kPa): 0.1749 ± 0.0054 mPa·s
- viscosity (363.16 K, 2475 kPa): 0.079 ± 0.0043 mPa·s
- viscosity (363.16 K, 3000 kPa): 0.0833 ± 0.0042 mPa·s
- viscosity (363.16 K, 5000 kPa): 0.0932 ± 0.0043 mPa·s
- viscosity (363.16 K, 10000 kPa): 0.1125 ± 0.0045 mPa·s
- viscosity (363.16 K, 15000 kPa): 0.1273 ± 0.0047 mPa·s
- viscosity (363.16 K, 20000 kPa): 0.1401 ± 0.0049 mPa·s
- viscosity (363.16 K, 25000 kPa): 0.1516 ± 0.0051 mPa·s
- viscosity (363.16 K, 30000 kPa): 0.1622 ± 0.0052 mPa·s
- viscosity (373.17 K, 3026 kPa): 0.0632 ± 0.0042 mPa·s
- viscosity (373.17 K, 5000 kPa): 0.0809 ± 0.0042 mPa·s
- viscosity (373.17 K, 10000 kPa): 0.1013 ± 0.0044 mPa·s
- viscosity (373.17 K, 15000 kPa): 0.1155 ± 0.0046 mPa·s
- viscosity (373.17 K, 20000 kPa): 0.1286 ± 0.0048 mPa·s
- viscosity (373.17 K, 25000 kPa): 0.1403 ± 0.0049 mPa·s
- viscosity (373.17 K, 30000 kPa): 0.1514 ± 0.0051 mPa·s

SMILES: Cc1ccccc1 [toluene]
- viscosity (273.13 K, 1000 kPa): 0.7735 ± 0.017 mPa·s
- viscosity (273.13 K, 5000 kPa): 0.7996 ± 0.017 mPa·s
- viscosity (273.13 K, 10000 kPa): 0.832 ± 0.018 mPa·s
- viscosity (273.13 K, 20000 kPa): 0.8994 ± 0.019 mPa·s
- viscosity (273.13 K, 30000 kPa): 0.969 ± 0.021 mPa·s
- viscosity (298.15 K, 1000 kPa): 0.5573 ± 0.013 mPa·s
- viscosity (298.15 K, 5000 kPa): 0.5744 ± 0.013 mPa·s
- viscosity (298.15 K, 10000 kPa): 0.5969 ± 0.013 mPa·s
- viscosity (298.15 K, 20000 kPa): 0.6394 ± 0.014 mPa·s
- viscosity (298.15 K, 30000 kPa): 0.6892 ± 0.015 mPa·s
- viscosity (323.16 K, 1000 kPa): 0.4222 ± 0.0099 mPa·s
- viscosity (323.16 K, 5000 kPa): 0.4359 ± 0.01 mPa·s
- viscosity (323.16 K, 10000 kPa): 0.4531 ± 0.01 mPa·s
- viscosity (323.16 K, 20000 kPa): 0.4894 ± 0.011 mPa·s
- viscosity (323.16 K, 30000 kPa): 0.5242 ± 0.012 mPa·s
- viscosity (343.16 K, 1000 kPa): 0.3495 ± 0.0085 mPa·s
- viscosity (343.16 K, 5000 kPa): 0.3611 ± 0.0087 mPa·s
- viscosity (343.16 K, 10000 kPa): 0.3757 ± 0.009 mPa·s
- viscosity (343.16 K, 20000 kPa): 0.4054 ± 0.0096 mPa·s
- viscosity (343.16 K, 30000 kPa): 0.4367 ± 0.01 mPa·s
- viscosity (363.16 K, 1000 kPa): 0.2941 ± 0.0075 mPa·s
- viscosity (363.16 K, 5000 kPa): 0.3047 ± 0.0077 mPa·s
- viscosity (363.16 K, 10000 kPa): 0.3173 ± 0.0079 mPa·s
- viscosity (363.16 K, 20000 kPa): 0.3436 ± 0.0084 mPa·s
- viscosity (363.16 K, 30000 kPa): 0.3694 ± 0.0089 mPa·s
